Assay [1] concerns the target T1, human Endothelial Differentiation Gene 1 (EDG1), S1P1 receptor (Homo sapiens, UniProt P21453).
T1 construct: TEV protease site; Gal4-VP16 transcription factor; expressed in transfected cells; host or cells: EDG1-bla/U2OS (Tango GPCR-bla U2OS parental cell line)
The experiment in a line: S1P1 Assay (Tango EDG1-bla/U2OS beta-lactamase reporter, agonist dose response). It counts as cell-based. The following applies: EDG1-bla/U2OS cells, blue/green emission ratio, 10 point dose response, free base or salt form; read-out: pEC50 (S1P1 assay) (converted). The essentials:
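U2OS Tango cells with human EDG1 coupled to TEV site/Gal4-VP16 beta-lactamase reporter, serum-starved 24 h, then exposed overnight at 37 °C to 10-point compound dilutions. CCF4-AM FRET substrate 2 h RT; 460/530 nm ratio normalised to agonist and DMSO controls, sigmoidal fit; intrinsic activity relative to a reference compound set at 100%.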

Assay [2] concerns the target T2, human Endothelial Differentiation G-protein Coupled Receptor 3 (EDG3), S1P3 receptor (Homo sapiens, UniProt Q99500).
T2 construct: expressed in transfected cells; host or cells: GeneBLAzer EDG3-Ga15-NFAT-bla HEK 293T
The experiment in a line: S1P3 Assay (GeneBLAzer EDG3-Ga15-NFAT-bla HEK 293T beta-lactamase reporter, agonist dose response). It counts as cell-based. The following applies: EDG3-Ga15-NFAT-bla HEK 293T cells, blue/green emission ratio, 10 point dose response, free base or salt form; read-out: pEC50 (S1P3 assay) (converted). The essentials:
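HEK 293T cells stably expressing human EDG3 with Ga15 and NFAT-beta-lactamase reporter, ~10,000 cells/well, exposed overnight at 37 °C to 10-point compound doses in charcoal-stripped serum medium. CCF4-AM substrate loaded 2 h at room temperature; 460/530 nm ratio normalized to DMSO and agonist controls, sigmoidal fit; intrinsic activity relative to reference agonist maximum (100%).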

Counter-ions that a name gives are not always drawn. Bounds are passed on as bounds.

T2 sequence (Q99500 whole entry): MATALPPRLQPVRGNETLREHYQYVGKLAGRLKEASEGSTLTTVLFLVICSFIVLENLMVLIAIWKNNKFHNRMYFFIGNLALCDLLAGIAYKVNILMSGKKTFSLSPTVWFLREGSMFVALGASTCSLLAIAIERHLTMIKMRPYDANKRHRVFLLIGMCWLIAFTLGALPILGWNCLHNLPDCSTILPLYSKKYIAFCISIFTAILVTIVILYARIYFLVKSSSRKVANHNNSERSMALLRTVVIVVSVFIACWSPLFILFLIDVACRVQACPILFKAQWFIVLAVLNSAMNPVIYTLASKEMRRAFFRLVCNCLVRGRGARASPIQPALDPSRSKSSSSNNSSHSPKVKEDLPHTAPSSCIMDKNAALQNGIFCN
T1 sequence (P21453 whole entry, the tested form may be a part): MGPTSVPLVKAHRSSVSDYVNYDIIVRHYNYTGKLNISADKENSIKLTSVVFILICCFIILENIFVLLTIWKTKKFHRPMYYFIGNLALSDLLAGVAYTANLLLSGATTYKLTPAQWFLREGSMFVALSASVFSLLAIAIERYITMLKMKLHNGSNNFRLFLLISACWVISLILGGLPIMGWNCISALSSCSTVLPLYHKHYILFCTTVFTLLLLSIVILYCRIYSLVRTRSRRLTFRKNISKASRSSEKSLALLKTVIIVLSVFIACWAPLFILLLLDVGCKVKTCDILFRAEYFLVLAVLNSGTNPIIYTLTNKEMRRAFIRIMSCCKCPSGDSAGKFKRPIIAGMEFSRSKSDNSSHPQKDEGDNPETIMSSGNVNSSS

As to `CCc1c(CN2CCC(C(=O)O)C2)cccc1-c1nnc(-c2ccc(CC(C)C)c(C#N)c2)s1` (stereo not shown) [Example 48, 1-[(3-{5-[3-cyano-4-(2-methylpropyl)phenyl]-1,3,4-thiadiazol-2-yl}-2-ethylphenyl)methyl]-3-pyrrolidinecarboxylic acid], the results for the EC50 in assay [1] and in assay [2] were less than 1 nM and greater than 3160 nM, respectively.

With `CCc1c(CCN2CCC(CC(=O)O)CC2)cccc1-c1nsc(-c2ccc(OC(C)C)c(Cl)c2)n1` [Example 72], the EC50 in assay [1] is no more than 10 nM; in assay [2], greater than 3160 nM.

On to `CCc1c(CN2CCC[C@H](C(=O)O)C2)cccc1-c1nnc(-c2ccc(OC(C)C)c(Cl)c2)s1` [Example 47], for which the EC50 was no more than 10 nM in assay [1] and greater than 10000 nM in assay [2].

Regarding `CCc1c(CCN2CCC[C@H](C(=O)O)C2)cccc1-c1nnc(-c2ccc(CC(C)C)c(C#N)c2)s1` [Example 64], the EC50 is less than 1 nM in assay [1] and greater than 3160 nM in assay [2].

Turning to `CCc1c(CCN2C[C@H](O)C[C@H]2C(=O)O)cccc1-c1nnc(-c2ccc(OC(C)C)c(Cl)c2)s1` [Example 55], the EC50 in assay [1] is no more than 10 nM; in assay [2], greater than 10000 nM.

For `CCc1c(CCN2CCC[C@H](C(=O)O)C2)cccc1-c1nsc(-c2ccc(CC(C)C)c(C#N)c2)n1` [Example 80], the EC50 in assay [1] is less than 1 nM; in assay [2], greater than 3160 nM.

In the case of `CCc1c(CC2CCN(CCC(=O)O)CC2)cccc1-c1nsc(-c2ccc(OC(C)C)c(Cl)c2)n1` [Example 106, 3-(4-{[3-(5-{3-chloro-4-[(1-methylethyl)oxy]phenyl}-1,2,4-thiadiazol-3-yl)-2-ethylphenyl]methyl}-1-piperidinyl)propanoic acid trifluoroacetate], the EC50 was less than 100 nM in assay [1] and greater than 3160 nM in assay [2].

For the compound `CCc1c(CN2CCC[C@H](C(=O)O)C2)cccc1-c1nnc(-c2ccc(CC(C)C)c(C#N)c2)s1` [Example 51], the EC50 in assay [1] is less than 1 nM; in assay [2], greater than 10000 nM.

As to `CCc1c(CN2CCC(C(=O)O)C2)cccc1-c1nnc(-c2ccc(OC(C)C)c(Cl)c2)s1` (stereo not shown) [Example 44, 1-{[3-(5-{3-chloro-4-[(1-methylethyl)oxy]phenyl}-1,3,4-thiadiazol-2-yl)-2-ethylphenyl]methyl}-3-pyrrolidinecarboxylic acid trifluoroacetate], the EC50 in assay [1] was no more than 10 nM; in assay [2], greater than 3160 nM.

In the case of `CCc1c(CN2CCC(C(=O)O)C2)cccc1-c1cnc(-c2ccc(OC(C)C)c(C#N)c2)s1` (stereo not shown) [Example 83], the EC50 is no more than 10 nM in assay [1] and greater than 10000 nM in assay [2].

As for `CCc1c(CC2CCN(CC(=O)O)CC2)cccc1-c1nsc(-c2ccc(OC(C)C)c(Cl)c2)n1` [Example 105, (4-{[3-(5-{3-chloro-4-[(1-methylethyl)oxy]phenyl}-1,2,4-thiadiazol-3-yl)-2-ethylphenyl]methyl}-1-piperidinyl)acetic acid trifluoroacetate], the EC50 is less than 100 nM in assay [1] and greater than 10000 nM in assay [2].

With `CCc1c(CCN2CC(C(=O)O)C2)cccc1-c1cnc(-c2ccc(OC(C)C)c(Cl)c2)s1` [Example 41, 1-{2-[3-(2-{3-chloro-4-[(1-methylethyl)oxy]phenyl}-1,3-thiazol-5-yl)-2-ethylphenyl]ethyl}-3-azetidinecarboxylic acid trifluoroacetate], the values for the EC50 in assay [1] and in assay [2] were less than 1 nM and greater than 3160 nM, respectively.

Take `CCc1c(CN2CC(C(=O)O)C2)cccc1-c1nnc(-c2ccc(CC(C)C)c(C#N)c2)s1` [Example 9, 1-[(3-{5-[3-cyano-4-(2-methylpropyl)phenyl]-1,3,4-thiadiazol-2-yl}-2-ethylphenyl)methyl]-3-azetidinecarboxylic acid trifluoroacetate]: the EC50 in assay [1] is less than 1 nM; in assay [2], greater than 10000 nM.

With `COc1c(CCN2CC(C(=O)O)C2)cc(F)cc1-c1nnc(-c2ccc(CC(C)C)c(C#N)c2)s1` [Example 15, 1-{2-[3-{5-[3-cyano-4-(2-methylpropyl)phenyl]-1,3,4-thiadiazol-2-yl}-5-fluoro-2-(methyloxy)phenyl]ethyl}-3-azetidinecarboxylic acid], the EC50 is no more than 10 nM in assay [1] and greater than 10000 nM in assay [2].

The values above are taken from US8389508B2 (Glaxo Group Limited, priority 2010, dated 2013).
